Reference: patent US7812042B2, “Pharmaceutical compositions and therapeutic applications for the use of a novel vitamin B12 derivative, N-acetyl-L-cysteinylcobalamin” (priority 2006, dated 2010)
Values joined by “and” are separate entries in the source; they are usually repeats but may differ in a detail not shown here. Equal entries are not always repeated.

Legend:
Hsp32 = Hsp32 gene expression in SK-HEP-1 cells (RT-PCR, densitometry); format: cell-based, Human; conditions: homocysteine 30 μM, folate 30 μM (2 hr), Sn(IX) protoporphyrin 25 μM, quercitin 15 μM
Description: Cells were plated into 6-, 12-, or 24-well cell culture clusters, at 2×10^3, 2×10^5, or 1×10^5 cells per well and incubated until 90% confluent. Treatments were applied as above.
Following incubation, cells were subjected to mRNA extraction followed by cDNA synthesis for each sample under test. Polymerase chain reaction cDNA templates were prepared for simplex PCR protocol. PCR products were then visualized using a UV Transilluminator and images captured using a Kodak ID gel imaging system. Densitometry and statistical analysis was then performed on each gene expression band image using PSP® v 10.0 running under Windows XP®.
mRNA extraction was performed using the Quickprep micro mRNA Purification Kit. Following incubation of cells post-treatment, the media was removed from the cells, adherent cells were re-suspended in 0.4 ml extraction buffer and 0.8 ml elution buffer at 65° C. was added.
A reaction mixture was prepared in individual microcentrifuge tubes containing 2 cDNA synthesis beads, 32 μl of the mRNA solution and 1 μl of pd(N)6. This mixture was incubated at 37° C. in a water bath for 60 minutes. After incubation, 27 μl of RNase-free DEPC treated water was added to each tube to make a total volume 60 μl. cDNA samples were prepared in duplicate. Sample 1 was used immediately in RT-PCR protocol. Sample 2 was prepared for qPCR protocol by the addition of 150 μl of 95% ice-cold ethanol and stored at −20° C.
Microcentrifuge tubes from puReTaq™Ready-To-Go™ PCR Beads containing one PCR bead were labeled for each sample required. Added to the PCR bead were 17 μl of RNase-free DEPC treated water, 1 μl sense primer, 1 μl anti-sense primer and 5 μl of the cDNA solution. RT-PCR conditions were as follows: Hsp70 and β-actin, pre-treatment step, 94° C. for 1 minute, followed by denaturing at 92° C. for 1 minute, annealing at 60° C. for 1 minute and extension at 72° C. for 1 minute. Total cycles, 30, post-treatment was then carried out at 72° C. for 10 minutes. For Hsp32, pre-treatment step, 95° C. for 2 minutes, followed by denaturing at 94° C. for 30 seconds, annealing at 58° C. for 1 minute and extension at 72° C. for 1 minute. Total cycles 45, post treatment was then carried out at 72° C. for 10 minutes. Following RT-PCR, samples were stored at −20° C.
Amplification products were separated on a 1.8% agarose gel (m/v) in TAE buffer. The size of the PCR products was determined by comparison to DNA fragments of a well-defined size; therefore, 5 μl of the DNA Ladder was carefully pipetted into the first well of the gel. Successive 10 μl of each PCR sample was then pipetted into subsequent wells on the agarose gel. The gel was connected to the Power Pack and run at 100V for 30 minutes.
Gels were visualised on a UV Transilluminator. Photographs were stored using a Kodak Digital camera system fitted with a UV filter set connected to a PC. Images were then transferred to the Kodak ID gel imaging system. Densitometry was performed on each gene expression band using PSP™ v10 running under Windows XP®.
Experiments were conducted using Hsp32 and Hsp 70 gene expression as the basis for study. […] (all treatments for 2 hours).

SK-HEP-1 cells [1] = assay: NACCbl protection from homocysteine with Hsp32/Hsp70 inhibited by Sn(IX) protoporphyrin, quercitin or siRNA (MTS assay); format: cell-based, Human; conditions: for cell viability (MTS), raw readings (FIG. 11): NACCbl 30 μM pre-treatment two hours with/without Sn(IX)PP, quercetin, replicates 1-6
Description: siRNAs for human HO-1 were synthesised in 2′-deprotected, duplexed, desalted and purified form by Dharmacon Research Inc., published sequences from Zhang et al., (Zhang, Shan et al. 2004). Human Hsp70 primers were from proprietary sequences, and all control non-targeting primer sequences were also synthesised by Dharmacon Research Inc.
Transfection was optimised using a standard siControl Tox protocol. All transfection experiments included non-targeted siRNA.
Cells were trypsinized and plated into 12- or 96-well plates at cell density of 2×10^5, then incubated for 24 hours until adherent. Complexed siRNA and transfection agent at 100 nm was added directly to each experimental well. Plates were incubated at 37° C. for 32.5 hours for mRNA gene analysis experiments or 72 hours for protein analysis by Western Blot.
Complexed siRNA and transfection agent was added to each well of either 12- or 96-well plates. Cells were then trypsinized and added directly into each test well at cell density of 2×10^5. Plates were incubated at 37° C. for 32.5 hours for mRNA gene analysis experiments or 72 hours for protein analysis by Western Blot.
Hsp32 was inhibited using either Sn (IX) protoporhyrin or using an siRNA which specifically knocks out Hsp32. Hsp70 was inhibited using quercitin or using an siRNA which specifically knocks out Hsp70. In addition, two methods were used to inhibit both Hsp32 and Hsp70: chemically Sn (IX) protoporphyrin plus quercitin was used; and then, directly, a combination of the siRNA for both genes was used simultaneously.

SK-HEP-1 cells [2] = assay: Effect of high concentrations of NACCbl and GSCbl on SK-HEP-1 cells (MTS assay); format: cell-based, Human; set-up: cell viability (MTS), raw readings (FIG. 13): reference not given here; conditions: 24 hours; for cell viability (MTS), raw readings (FIG. 13): 3 replicates
U937 (monocytes) = assay: Survival of U937 cells at variable concentration of Hcy; format: cell-based; conditions: NACCbl 30 μM, NAC 75 μM, CNCbl 15 μM, folate 30 μM; especially at higher homocysteine concentrations
Description: (§1) Additional cell studies were conducted using Jurkat (T-cells) and U937 (monocyte) cell lines. These experiments confirmed that other cell types are killed by homocysteine, although these cell lines are not as sensitive as the SK-HEP-1 cell line discussed in the experiments above and are thus more resistant to homocysteine. Cells were exposed to NACCbl 30 μM, NAC 75 μM, CNCbl 15 μM, and folate 30 μM. […] In these Figures, the monocytes are N=6 and concentrations are as follows: NACCbl 30 μM, NAC 75 μM, CNCbl 15 μM, Folate 30 μM

Jurkat (T-cells) = assay: Survival of Jurkat cells at variable concentration of Hcy; format: cell-based; conditions: NACCbl 30 μM, NAC 75 μM, CNCbl 15 μM, folate 30 μM; especially at higher homocysteine concentrations
Description: as §1

SMILES: CC(=O)NC(C[S-])C(=O)O.CC1=C2N=C(C=C3N=C(C(C)=C4[N-]C(C(CC(N)=O)C4(C)CCC(=O)NCC(C)OP(=O)([O-])OC4C(CO)OC(n5cnc6cc(C)c(C)cc65)C4O)C4(C)N=C1C(CCC(N)=O)C4(C)CC(N)=O)C(CCC(N)=O)C3(C)C)C(CCC(N)=O)C2(C)CC(N)=O.[Co+3] [NACCbl, N-acetyl-L-cysteinylcobalamin]
- effect on Hsp32 gene expression (Hsp32): induce Hsp32
- cell viability (MTS), raw readings (FIG. 11) (SK-HEP-1 cells [1]; Hcy 0): 2.885 and 2.698 and 2.821 and 2.771 and 2.691 and 2.7
- cell viability (MTS), raw readings (FIG. 11) (SK-HEP-1 cells [1]; Hcy 1.78 (μM) two hours, where named): 2.647 and 2.551 and 2.789 and 2.89 and 2.549 and 2.611
- cell viability (MTS), raw readings (FIG. 11) (SK-HEP-1 cells [1]; Hcy 3.125 (μM) two hours, where named): 2.453 and 2.338 and 2.36 and 2.317 and 2.418 and 2.535
- cell viability (MTS), raw readings (FIG. 11) (SK-HEP-1 cells [1]; Hcy 6.25 (μM) two hours, where named): 2.41 and 2.4 and 2.322 and 2.201 and 2.115 and 2.187
- cell viability (MTS), raw readings (FIG. 11) (SK-HEP-1 cells [1]; Hcy 12.5 (μM) two hours, where named): 2.21 and 2.11 and 2.045 and 2.065 and 2.101 and 2.324
- cell viability (MTS), raw readings (FIG. 11) (SK-HEP-1 cells [1]; Hcy 25 (μM) two hours, where named): 2.1 and 2.19 and 1.879 and 1.937 and 1.779 and 1.837
- cell viability (MTS), raw readings (FIG. 11) (SK-HEP-1 cells [1]; Hcy 50 (μM) two hours, where named): 1.678 and 1.832 and 1.881 and 1.73 and 1.74 and 1.855
- cell viability (MTS), raw readings (FIG. 11) (SK-HEP-1 cells [1]; Hcy 100 (μM) two hours, where named): 1.678 and 1.592 and 1.694 and 1.773 and 1.732 and 1.639
- cell viability (MTS), raw readings (FIG. 11) (SK-HEP-1 cells [1]; Hcy 200 (μM) two hours, where named): 1.378 and 1.167 and 1.33 and 1.456 and 1.491 and 1.537
- effect of inhibition of both Hsp32 and Hsp70 together on protection by NACCbl (SK-HEP-1 cells [1]; both methods (chemically and directly), NACCbl 30 μM): totally removed protection
- survival (SK-HEP-1 cells [2]; 10 mM): over 60%
- cell viability (MTS), raw readings (FIG. 13) (SK-HEP-1 cells [2]; compound conc. 0.61 (μM scale)): 2.572 and 2.498 and 2.473
- cell viability (MTS), raw readings (FIG. 13) (SK-HEP-1 cells [2]; compound conc. 1.22 (μM scale)): 2.546 and 2.524 and 2.538
- cell viability (MTS), raw readings (FIG. 13) (SK-HEP-1 cells [2]; compound conc. 2.441 (μM scale)): 2.592 and 2.536 and 2.499
- cell viability (MTS), raw readings (FIG. 13) (SK-HEP-1 cells [2]; compound conc. 4.882 (μM scale)): 2.532 and 2.463 and 2.457
- cell viability (MTS), raw readings (FIG. 13) (SK-HEP-1 cells [2]; compound conc. 9.765 (μM scale)): 2.505 and 2.474 and 2.514
- cell viability (MTS), raw readings (FIG. 13) (SK-HEP-1 cells [2]; compound conc. 19.531 (μM scale)): 2.485 and 2.466 and 2.502
- cell viability (MTS), raw readings (FIG. 13) (SK-HEP-1 cells [2]; compound conc. 39.062 (μM scale)): 2.503 and 2.474 and 2.453
- cell viability (MTS), raw readings (FIG. 13) (SK-HEP-1 cells [2]; compound conc. 78.125 (μM scale)): 2.521 and 2.488 and 2.475
- cell viability (MTS), raw readings (FIG. 13) (SK-HEP-1 cells [2]; compound conc. 156.25 (μM scale)): 2.484 and 2.42 and 2.492
- cell viability (MTS), raw readings (FIG. 13) (SK-HEP-1 cells [2]; compound conc. 312.5 (μM scale)): 2.409 and 2.301 and 2.437
- cell viability (MTS), raw readings (FIG. 13) (SK-HEP-1 cells [2]; compound conc. 625 (μM scale)): 2.358 and 2.242 and 2.347
- cell viability (MTS), raw readings (FIG. 13) (SK-HEP-1 cells [2]; compound conc. 1250 (μM scale)): 2.2 and 2.055 and 2.3
- cell viability (MTS), raw readings (FIG. 13) (SK-HEP-1 cells [2]; compound conc. 2500 (μM scale)): 1.989 and 1.891 and 2.085
- cell viability (MTS), raw readings (FIG. 13) (SK-HEP-1 cells [2]; compound conc. 5000 (μM scale)): 2.081 and 2.003 and 2.004
- cell viability (MTS), raw readings (FIG. 13) (SK-HEP-1 cells [2]; compound conc. 10000 (= 10 mM)): 1.908 and 1.82 and 1.732
- protection of U937 cells from death by homocysteine, comparison (U937 (monocytes)): more effective at protecting these cells from death than NAC, CN Cbl or folate
- protection of Jurkat cells from death by homocysteine, comparison (Jurkat (T-cells)): more effective at protecting these cells from death than NAC, CN Cbl or folate
